Test results reported in ChEMBL document CHEMBL2177025, “Chemical proteomics-based analysis of off-target binding profiles for rosiglitazone and pioglitazone: clues for assessing potential for cardiotoxicity” (J Med Chem, 2012).
Each block holds one molecule with its values, some of them ahead of it. Activity calls are given as the source filed them. The calls are words filed in the database; no cut-off is given here.

What was measured:
[1] = target: Hemopexin (Rattus norvegicus) (UniProt P20059); assay: Binding affinity to hemopexin precursor in Sprague-Dawley rat heart homogenate after 15 mins by chromatographic analysis; type: tissue-based
[2] = target: Sodium-dependent multivitamin transporter (Rattus norvegicus) (UniProt O70247); assay: Binding affinity to sodium-dependent multivitamin transporter in Sprague-Dawley rat heart homogenate after 15 mins by chromatographic analysis; type: tissue-based
Chain of Sodium-dependent multivitamin transporter (Rattus norvegicus) (O70247 whole entry): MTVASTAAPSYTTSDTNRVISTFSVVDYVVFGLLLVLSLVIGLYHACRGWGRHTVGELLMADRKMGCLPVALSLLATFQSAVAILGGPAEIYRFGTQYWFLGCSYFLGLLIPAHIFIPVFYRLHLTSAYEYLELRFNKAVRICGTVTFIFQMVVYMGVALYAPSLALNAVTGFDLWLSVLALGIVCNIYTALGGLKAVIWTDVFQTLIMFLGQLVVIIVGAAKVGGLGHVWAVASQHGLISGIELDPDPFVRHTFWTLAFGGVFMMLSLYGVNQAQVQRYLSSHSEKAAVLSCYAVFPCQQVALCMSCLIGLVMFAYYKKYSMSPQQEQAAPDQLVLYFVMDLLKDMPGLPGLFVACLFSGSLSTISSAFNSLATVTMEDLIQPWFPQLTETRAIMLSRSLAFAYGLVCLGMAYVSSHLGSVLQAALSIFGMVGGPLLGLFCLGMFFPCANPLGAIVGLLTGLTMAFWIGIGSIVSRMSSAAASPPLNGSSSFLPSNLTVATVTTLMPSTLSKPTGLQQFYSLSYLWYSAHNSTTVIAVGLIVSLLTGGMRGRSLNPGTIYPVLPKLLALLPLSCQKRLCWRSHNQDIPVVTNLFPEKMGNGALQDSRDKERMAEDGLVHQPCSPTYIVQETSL

[3] = target: Creatine kinase M-type (Rattus norvegicus) (UniProt P00564); assay: Binding affinity to creatine kinase M-type in Sprague-Dawley rat heart homogenate after 15 mins by chromatographic analysis relative to rosiglitazone; type: tissue-based
[4] = target: Cyclic AMP-dependent transcription factor ATF-2 (Mus musculus) (UniProt P16951); assay: Binding affinity to mouse cyclic AMP-dependent transcription factor ATF-2 by chromatographic analysis
[5] = target: Citrate synthase, mitochondrial (Mus musculus) (UniProt Q9CZU6); assay: Binding affinity to mouse mitochondrial citrate synthase by chromatographic analysis relative to rosiglitazone
[6] = target: Aspartate aminotransferase, mitochondrial (Rattus norvegicus) (UniProt P00507); assay: Binding affinity to mitochondrial aspartate aminotransferase in Sprague-Dawley rat heart homogenate after 15 mins by chromatographic analysis; type: tissue-based
[7] = target: 2-oxoglutarate dehydrogenase complex component E1 (Mus musculus) (UniProt Q60597); assay: Binding affinity to mouse mitochondrial 2-oxoglutarate dehydrogenase E1 component by chromatographic analysis
[8] = target: T1, Long-chain specific acyl-CoA dehydrogenase, mitochondrial (Rattus norvegicus) (UniProt P15650); assay: Binding affinity to mitochondrial long-chain specific acyl-CoA dehydrogenase in Sprague-Dawley rat heart homogenate after 15 mins by chromatographic analysis relative to rosiglitazone; type: tissue-based
T1 sequence (whole entry): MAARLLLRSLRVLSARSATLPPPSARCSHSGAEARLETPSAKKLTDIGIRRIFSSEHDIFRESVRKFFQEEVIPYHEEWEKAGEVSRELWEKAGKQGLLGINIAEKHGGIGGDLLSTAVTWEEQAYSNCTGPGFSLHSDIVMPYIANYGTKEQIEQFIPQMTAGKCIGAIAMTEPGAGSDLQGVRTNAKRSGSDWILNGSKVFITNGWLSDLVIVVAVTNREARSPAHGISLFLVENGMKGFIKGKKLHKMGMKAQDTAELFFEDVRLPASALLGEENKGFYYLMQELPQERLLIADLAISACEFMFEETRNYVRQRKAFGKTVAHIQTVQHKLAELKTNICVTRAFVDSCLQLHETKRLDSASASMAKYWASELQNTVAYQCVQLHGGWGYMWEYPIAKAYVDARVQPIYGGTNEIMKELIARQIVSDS

[9] = target: Creatine kinase B-type (Rattus norvegicus) (UniProt P07335); assay: Binding affinity to creatine kinase B-type in Sprague-Dawley rat heart homogenate after 15 mins by chromatographic analysis; type: tissue-based
[10] = target: Interleukin-12 subunit beta (Mus musculus) (UniProt P43432); assay: Binding affinity to mouse interleukin-12 beta chain precursor by chromatographic analysis
Chain of Interleukin-12 subunit beta (Mus musculus) (P43432 whole entry): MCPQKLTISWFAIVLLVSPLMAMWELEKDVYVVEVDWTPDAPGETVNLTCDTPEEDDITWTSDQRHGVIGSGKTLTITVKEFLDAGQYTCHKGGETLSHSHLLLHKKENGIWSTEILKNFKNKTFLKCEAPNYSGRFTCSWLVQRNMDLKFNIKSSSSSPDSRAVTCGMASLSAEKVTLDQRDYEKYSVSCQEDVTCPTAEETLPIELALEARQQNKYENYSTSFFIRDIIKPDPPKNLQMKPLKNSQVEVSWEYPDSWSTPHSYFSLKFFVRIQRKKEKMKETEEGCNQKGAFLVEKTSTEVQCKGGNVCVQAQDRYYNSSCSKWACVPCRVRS

[11] = target: Importin-7 (Mus musculus) (UniProt Q9EPL8); assay: Binding affinity to mouse importin-7 by chromatographic analysis
Chain of Importin-7 (Mus musculus) (Q9EPL8 whole entry): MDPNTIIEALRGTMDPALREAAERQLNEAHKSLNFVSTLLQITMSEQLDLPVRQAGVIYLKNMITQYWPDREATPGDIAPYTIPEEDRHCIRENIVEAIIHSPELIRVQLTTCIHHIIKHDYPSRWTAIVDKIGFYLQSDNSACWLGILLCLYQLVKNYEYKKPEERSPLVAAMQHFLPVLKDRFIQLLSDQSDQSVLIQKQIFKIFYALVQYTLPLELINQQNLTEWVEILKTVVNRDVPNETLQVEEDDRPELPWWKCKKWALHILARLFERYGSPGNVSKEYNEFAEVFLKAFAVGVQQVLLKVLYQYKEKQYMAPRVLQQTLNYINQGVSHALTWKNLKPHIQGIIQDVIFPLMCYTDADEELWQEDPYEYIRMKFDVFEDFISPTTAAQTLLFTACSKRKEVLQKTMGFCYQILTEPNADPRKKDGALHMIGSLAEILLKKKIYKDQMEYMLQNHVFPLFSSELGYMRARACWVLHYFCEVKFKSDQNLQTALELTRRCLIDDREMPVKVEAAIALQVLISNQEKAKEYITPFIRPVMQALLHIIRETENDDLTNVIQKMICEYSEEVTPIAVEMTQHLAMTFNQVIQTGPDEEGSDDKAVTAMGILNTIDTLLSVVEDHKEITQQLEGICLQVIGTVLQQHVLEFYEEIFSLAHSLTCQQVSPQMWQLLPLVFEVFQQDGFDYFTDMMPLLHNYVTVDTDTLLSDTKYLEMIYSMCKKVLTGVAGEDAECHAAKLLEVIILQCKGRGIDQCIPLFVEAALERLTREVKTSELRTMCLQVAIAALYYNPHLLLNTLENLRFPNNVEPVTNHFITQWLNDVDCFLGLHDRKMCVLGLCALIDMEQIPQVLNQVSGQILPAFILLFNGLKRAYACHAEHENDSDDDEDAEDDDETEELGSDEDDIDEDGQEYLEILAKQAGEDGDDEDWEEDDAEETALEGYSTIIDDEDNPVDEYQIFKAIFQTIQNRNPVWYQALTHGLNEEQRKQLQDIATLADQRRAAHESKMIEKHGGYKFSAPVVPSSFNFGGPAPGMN

[12] = target: Transcription factor SOX-5 (Mus musculus) (UniProt P35710); assay: Binding affinity to mouse transcription factor SOX-5 after 15 mins by chromatographic analysis
Chain of Transcription factor SOX-5 (Mus musculus) (P35710 whole entry): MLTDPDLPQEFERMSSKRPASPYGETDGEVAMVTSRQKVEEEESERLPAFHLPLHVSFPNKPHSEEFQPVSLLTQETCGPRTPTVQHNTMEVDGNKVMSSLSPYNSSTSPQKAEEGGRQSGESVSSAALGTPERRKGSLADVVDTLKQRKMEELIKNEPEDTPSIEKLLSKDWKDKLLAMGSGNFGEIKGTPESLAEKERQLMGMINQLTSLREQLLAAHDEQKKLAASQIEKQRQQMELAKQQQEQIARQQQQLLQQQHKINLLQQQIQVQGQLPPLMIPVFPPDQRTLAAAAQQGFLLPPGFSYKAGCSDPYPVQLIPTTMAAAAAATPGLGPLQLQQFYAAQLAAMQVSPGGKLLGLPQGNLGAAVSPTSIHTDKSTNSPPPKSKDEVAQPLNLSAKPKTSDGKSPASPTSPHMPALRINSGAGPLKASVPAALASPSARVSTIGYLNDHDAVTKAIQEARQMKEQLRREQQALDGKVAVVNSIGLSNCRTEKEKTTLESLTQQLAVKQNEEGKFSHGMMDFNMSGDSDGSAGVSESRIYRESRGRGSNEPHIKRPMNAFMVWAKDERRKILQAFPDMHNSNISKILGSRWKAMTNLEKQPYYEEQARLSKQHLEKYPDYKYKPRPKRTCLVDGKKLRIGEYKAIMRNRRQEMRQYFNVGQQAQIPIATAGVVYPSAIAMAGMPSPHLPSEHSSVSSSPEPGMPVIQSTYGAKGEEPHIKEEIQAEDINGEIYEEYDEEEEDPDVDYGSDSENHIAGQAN

[13] = target: Trace amine-associated receptor 7b (Rattus norvegicus) (UniProt Q923X8); assay: Binding affinity to trace amine-associated receptor 7b in Sprague-Dawley rat heart homogenate after 15 mins by chromatographic analysis; type: tissue-based
[14] = target: Phosphoglycerate kinase 1 (Rattus norvegicus) (UniProt P16617); assay: Binding affinity to Phosphoglycerate kinase 1 in Sprague-Dawley rat heart homogenate after 15 mins by chromatographic analysis; type: tissue-based
[15] = target: Voltage-dependent L-type calcium channel subunit alpha-1F (Mus musculus) (UniProt Q9JIS7); assay: Binding affinity to mouse voltage-dependent L-type calcium channel alpha-1F subunit by chromatographic analysis
Chain of Voltage-dependent L-type calcium channel subunit alpha-1F (Mus musculus) (Q9JIS7 whole entry): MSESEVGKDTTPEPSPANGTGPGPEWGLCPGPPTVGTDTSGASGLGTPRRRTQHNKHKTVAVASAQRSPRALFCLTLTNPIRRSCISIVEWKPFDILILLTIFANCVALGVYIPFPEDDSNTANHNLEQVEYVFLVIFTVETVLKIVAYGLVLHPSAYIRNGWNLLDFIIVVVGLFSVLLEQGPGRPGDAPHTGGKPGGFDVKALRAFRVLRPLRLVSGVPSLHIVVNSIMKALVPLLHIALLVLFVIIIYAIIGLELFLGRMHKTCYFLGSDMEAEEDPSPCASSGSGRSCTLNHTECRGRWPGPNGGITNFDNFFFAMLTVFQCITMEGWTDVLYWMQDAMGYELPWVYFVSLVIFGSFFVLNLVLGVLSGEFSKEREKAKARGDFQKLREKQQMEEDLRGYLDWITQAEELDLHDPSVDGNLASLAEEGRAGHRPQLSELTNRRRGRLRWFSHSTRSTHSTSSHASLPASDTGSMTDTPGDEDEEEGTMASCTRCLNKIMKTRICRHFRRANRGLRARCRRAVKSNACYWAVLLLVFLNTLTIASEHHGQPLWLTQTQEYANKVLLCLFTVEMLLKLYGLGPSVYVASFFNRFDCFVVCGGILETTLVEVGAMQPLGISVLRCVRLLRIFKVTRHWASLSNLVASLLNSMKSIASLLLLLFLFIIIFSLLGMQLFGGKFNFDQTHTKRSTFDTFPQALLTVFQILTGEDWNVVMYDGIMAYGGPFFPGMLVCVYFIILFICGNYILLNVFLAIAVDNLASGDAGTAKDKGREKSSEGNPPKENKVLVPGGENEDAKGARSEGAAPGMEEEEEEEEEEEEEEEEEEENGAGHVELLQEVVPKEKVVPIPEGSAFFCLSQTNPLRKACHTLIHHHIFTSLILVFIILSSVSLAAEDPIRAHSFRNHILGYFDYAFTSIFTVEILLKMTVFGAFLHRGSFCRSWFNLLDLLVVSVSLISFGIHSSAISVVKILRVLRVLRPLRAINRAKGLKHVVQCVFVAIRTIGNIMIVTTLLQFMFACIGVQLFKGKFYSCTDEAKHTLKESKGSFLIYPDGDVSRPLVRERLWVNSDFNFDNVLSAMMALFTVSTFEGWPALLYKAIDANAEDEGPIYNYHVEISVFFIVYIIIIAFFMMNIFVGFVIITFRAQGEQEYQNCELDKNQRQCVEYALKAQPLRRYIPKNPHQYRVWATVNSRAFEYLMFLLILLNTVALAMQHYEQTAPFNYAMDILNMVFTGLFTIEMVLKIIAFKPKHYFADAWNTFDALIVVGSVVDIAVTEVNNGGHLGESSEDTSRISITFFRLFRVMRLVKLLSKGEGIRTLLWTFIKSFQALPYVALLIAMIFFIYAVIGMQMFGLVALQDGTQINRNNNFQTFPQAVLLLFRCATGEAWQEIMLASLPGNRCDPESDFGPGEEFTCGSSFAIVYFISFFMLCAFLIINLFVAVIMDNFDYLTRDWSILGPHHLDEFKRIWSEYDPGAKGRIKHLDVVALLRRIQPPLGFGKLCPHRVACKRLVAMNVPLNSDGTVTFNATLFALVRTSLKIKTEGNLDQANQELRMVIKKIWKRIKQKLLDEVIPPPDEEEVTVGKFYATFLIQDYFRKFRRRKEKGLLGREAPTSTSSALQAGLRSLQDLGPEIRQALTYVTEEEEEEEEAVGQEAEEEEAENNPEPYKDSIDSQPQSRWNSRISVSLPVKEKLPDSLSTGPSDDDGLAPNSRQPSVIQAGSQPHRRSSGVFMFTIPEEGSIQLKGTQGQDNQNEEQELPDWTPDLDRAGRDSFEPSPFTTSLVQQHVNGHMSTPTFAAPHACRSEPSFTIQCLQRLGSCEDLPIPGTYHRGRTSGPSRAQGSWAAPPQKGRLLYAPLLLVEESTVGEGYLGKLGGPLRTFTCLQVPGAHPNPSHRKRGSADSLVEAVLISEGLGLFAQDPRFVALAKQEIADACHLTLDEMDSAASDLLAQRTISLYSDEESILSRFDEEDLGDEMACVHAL

[16] = target: Triosephosphate isomerase (Rattus norvegicus) (UniProt P48500); assay: Binding affinity to triosephosphate isomerase in Sprague-Dawley rat heart homogenate after 15 mins by chromatographic analysis relative to rosiglitazone; type: tissue-based
Chain of Triosephosphate isomerase (Rattus norvegicus) (P48500 whole entry): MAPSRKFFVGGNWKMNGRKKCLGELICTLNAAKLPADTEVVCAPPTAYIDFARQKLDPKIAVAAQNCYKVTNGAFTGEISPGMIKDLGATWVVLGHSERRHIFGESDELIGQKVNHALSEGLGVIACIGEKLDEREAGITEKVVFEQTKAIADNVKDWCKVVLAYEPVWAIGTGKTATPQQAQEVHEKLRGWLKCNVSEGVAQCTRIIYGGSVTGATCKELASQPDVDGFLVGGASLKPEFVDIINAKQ

[17] = target: T2, Cardiotrophin-like cytokine factor 1 (Mus musculus) (UniProt Q9QZM3); assay: Binding affinity to mouse cardiotrophin-like cytokine factor 1 precursor by chromatographic analysis relative to pioglitazone
T2 sequence (whole entry): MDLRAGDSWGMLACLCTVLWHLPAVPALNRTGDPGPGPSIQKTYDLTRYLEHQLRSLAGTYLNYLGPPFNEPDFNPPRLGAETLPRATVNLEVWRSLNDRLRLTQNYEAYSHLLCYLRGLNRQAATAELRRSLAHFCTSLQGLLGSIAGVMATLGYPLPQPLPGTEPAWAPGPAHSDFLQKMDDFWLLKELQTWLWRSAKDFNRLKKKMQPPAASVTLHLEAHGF

[18] = target: Hepatocyte nuclear factor 6 (Mus musculus) (UniProt O08755); assay: Binding affinity to mouse hepatocyte nuclear factor 6 by chromatographic analysis
[19] = target: Rab11 family-interacting protein 4 (Mus musculus) (UniProt Q8BQP8); assay: Binding affinity to mouse Rab11 family interacting protein 4 by chromatographic analysis relative to pioglitazone
[20] = target: Prolactin-3B1 (Rattus norvegicus) (UniProt P09321); assay: Binding affinity to chorionic somatomammotropin hormone 2 precursor in Sprague-Dawley rat heart homogenate after 15 mins by chromatographic analysis relative to pioglitazone; type: tissue-based
[21] = target: Septin-9 (Rattus norvegicus) (UniProt Q9QZR6); assay: Binding affinity to septin-9 in Sprague-Dawley rat heart homogenate after 15 mins by chromatographic analysis relative to pioglitazone; type: tissue-based
[22] = target: Fanconi anemia group M protein homolog (Mus musculus) (UniProt Q8BGE5); assay: Binding affinity to mouse Fanconi anemia group M protein homologue by chromatographic analysis relative to pioglitazone
[23] = target: Malate dehydrogenase, cytoplasmic (Mus musculus) (UniProt P14152); assay: Binding affinity to mouse cytoplasmic malate dehydrogenase by chromatographic analysis
[24] = target: Cyclin-dependent kinase 7 (Mus musculus) (UniProt Q03147); assay: Binding affinity to mouse cell division protein kinase 7 by chromatographic analysis
[25] = target: Malate dehydrogenase, mitochondrial (Rattus norvegicus) (UniProt P04636); assay: Binding affinity to mitochondrial malate dehydrogenase in Sprague-Dawley rat heart homogenate after 15 mins by chromatographic analysis; type: tissue-based
[26] = target: Kinesin light chain 1 (Rattus norvegicus) (UniProt P37285); assay: Binding affinity to Kinesin light chain 1 in Sprague-Dawley rat heart homogenate after 15 mins by chromatographic analysis; type: tissue-based
[27] = target: Selenocysteine insertion sequence-binding protein 2 (Rattus norvegicus) (UniProt Q9QX72); assay: Binding affinity to SECIS-binding protein 2 in Sprague-Dawley rat heart homogenate after 15 mins by chromatographic analysis relative to pioglitazone; type: tissue-based

Activity [1]: Active
Activity [2]: Active
fold change (FC) [3]: 6.16
fold change (FC) [4]: 1.64
fold change (FC) [5]: 5.52
Activity [6]: Active
Activity [7]: Active
Activity [8]: Active
fold change (FC) [8]: 5.78
Activity [9]: Active
Activity [10]: Active
Activity [11]: Active
Activity [12]: Active
Activity [13]: Active
Activity [14]: Active
Activity [15]: Active
fold change (FC) [16]: 6.46
Compound: CCc1ccc(CCOc2ccc(CC3SC(=O)NC3=O)cc2)nc1 (stereo not drawn)

fold change (FC) [17]: 2.56
Activity [2]: Active
Activity [18]: Active
fold change (FC) [19]: 3.74
fold change (FC) [20]: 3.92
Activity [8]: Active
fold change (FC) [21]: 2.08
fold change (FC) [22]: 2.94
Activity [23]: Active
Activity [24]: Active
Activity [11]: Active
Activity [12]: Active
Activity [25]: Active
Activity [26]: Active
Activity [15]: Active
fold change (FC) [27]: 3.22
Compound: CN(CCOc1ccc(CC2SC(=O)NC2=O)cc1)c1ccccn1 (stereo not drawn)
